What all share (format): functional, cell-based
The target of series [1] is T1, Organic anion transporter 3 (Rattus norvegicus, UniProt Q9R1U7).
T1 sequence (Q9R1U7 whole entry): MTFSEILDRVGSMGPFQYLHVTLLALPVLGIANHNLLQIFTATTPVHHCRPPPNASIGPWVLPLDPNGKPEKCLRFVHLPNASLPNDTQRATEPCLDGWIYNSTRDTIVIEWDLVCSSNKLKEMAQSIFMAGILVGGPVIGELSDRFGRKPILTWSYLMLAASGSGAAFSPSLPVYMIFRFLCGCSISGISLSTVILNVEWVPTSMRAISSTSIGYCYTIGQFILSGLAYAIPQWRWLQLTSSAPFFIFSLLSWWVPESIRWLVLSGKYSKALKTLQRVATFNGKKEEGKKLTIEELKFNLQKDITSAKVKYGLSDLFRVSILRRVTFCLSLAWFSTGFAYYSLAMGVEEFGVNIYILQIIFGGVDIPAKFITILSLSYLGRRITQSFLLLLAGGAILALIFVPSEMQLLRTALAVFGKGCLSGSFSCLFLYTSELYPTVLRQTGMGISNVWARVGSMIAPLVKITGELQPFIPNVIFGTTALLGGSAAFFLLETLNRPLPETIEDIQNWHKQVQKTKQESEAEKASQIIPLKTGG
The experiment in a line: TP_TRANSPORTER: inhibition of Estrone sulfate uptake in OAT3-expressing S2 cells.

Series [2] concerns the target T2, Solute carrier family 22 member 6 (Rattus norvegicus, UniProt O35956).
T2 sequence (O35956 whole entry): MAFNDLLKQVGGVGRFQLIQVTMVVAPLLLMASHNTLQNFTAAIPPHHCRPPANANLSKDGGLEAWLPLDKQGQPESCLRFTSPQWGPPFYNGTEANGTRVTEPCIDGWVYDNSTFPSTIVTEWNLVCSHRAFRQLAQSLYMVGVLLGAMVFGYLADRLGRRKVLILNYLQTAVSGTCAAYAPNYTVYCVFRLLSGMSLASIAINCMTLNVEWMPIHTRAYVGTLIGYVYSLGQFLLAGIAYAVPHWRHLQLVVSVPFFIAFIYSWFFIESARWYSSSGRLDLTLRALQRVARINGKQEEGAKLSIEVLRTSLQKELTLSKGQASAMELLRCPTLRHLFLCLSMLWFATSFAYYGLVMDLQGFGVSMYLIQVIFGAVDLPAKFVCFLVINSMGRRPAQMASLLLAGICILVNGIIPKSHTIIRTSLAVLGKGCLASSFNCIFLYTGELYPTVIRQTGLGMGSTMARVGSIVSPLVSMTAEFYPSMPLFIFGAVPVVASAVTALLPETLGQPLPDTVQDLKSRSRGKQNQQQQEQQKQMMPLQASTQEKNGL
The experiment in a line: TP_TRANSPORTER: inhibition of PAH uptake in OAT1-expressing S2 cells.

Series [3] has as its target T1, Organic anion transporter 3. The experiment in a line: TP_TRANSPORTER: uptake in OAT3-expressing S2 cells. The conditions noted are these: mouse.

Molecules are shown by their SMILES.

One may read the IC50 as the midpoint of a concentration-inhibition curve. A higher IC50 goes with weaker potency in that assay. A word on the Ki: it is the equilibrium dissociation constant of an inhibitor or competing ligand from its target.

Turning to `CO/N=C(\C(=O)N[C@@H]1C(=O)N2C(C(=O)O)=C(CSc3nc(=O)c(=O)[nH]n3C)CS[C@H]12)c1csc(N)n1` [CEFTRIAXONE], the IC50 in series [1] was over 2000 µM. Take `CC1=C(C(=O)O)N2C(=O)[C@@H](NC(=O)[C@H](N)c3ccccc3)[C@H]2SC1` [CEPHALEXIN ANHYDROUS]: the values for the IC50 in series [1] and in series [2] were 630 µM and over 2000 µM, respectively.

Turning to `CC(=O)OCC1=C(C(=O)O)N2C(=O)[C@@H](NC(=O)Cc3cccs3)[C@H]2SC1` [CEPHALOTHIN], in series [1], the Ki worked out at 48 µM.

The compound `O=C(Cc1cccs1)N[C@@H]1C(=O)N2C(C(=O)[O-])=C(C[n+]3ccccc3)CS[C@H]12` [CEPHALORIDINE] yielded a Ki in series [1] of 1140 µM. In addition, the Activity entry in series [3] is “substrate [+]”. `CO/N=C(\C(=O)N[C@@H]1C(=O)N2C(C(=O)O)=C(COC(C)=O)CS[C@H]12)c1csc(N)n1` [CEFOTAXIME]: in series [1], half-maximal inhibition (IC50) was put at 800 µM. Same read-out and setting: for `CC1=C(C(=O)O)N2C(=O)[C@@H](NC(=O)[C@H](N)c3ccc(O)cc3)[C@H]2SC1` [CEFADROXIL] the value was 1780 µM. Compound `Cc1nnc(SCC2=C(C(=O)O)N3C(=O)[C@@H](NC(=O)Cn4cnnn4)[C@H]3SC2)s1` [CEFAZOLIN] gave a Ki in series [1] of 780 µM. Regarding `CCN1CCN(C(=O)N[C@@H](C(=O)N[C@@H]2C(=O)N3C(C(=O)O)=C(CSc4nnnn4C)CS[C@H]23)c2ccc(O)cc2)C(=O)C1=O` [CEFOPERAZONE], the Ki in series [1] was 670 µM. In turn, `Cn1nnnc1SCC1=C(C(=O)O)N2C(=O)[C@@H](NC(=O)[C@H](O)c3ccccc3)[C@H]2SC1` [CEFAMANDOLE] yielded an IC50 in series [1] of 90 µM.

The values above are taken from ChEMBL document CHEMBL2074497, “Involvement of rat organic anion transporter 3 (rOAT3) in cephaloridine-induced nephrotoxicity: in comparison with rOAT1” (Life Sci, 2002).
